From ChEMBL document CHEMBL2216752, “Carnitine palmitoyltransferase (CPT) modulators: a medicinal chemistry perspective on 35 years of research” (J Med Chem, 2011)

Assays:
[1] = test system: Canis familiaris; assay: Reduction in fasting glucose in STZ-treated dog at 2.5 mg/kg/day, po for 7 days; assay type: functional, Canis lupus familiaris; set-up: scale not given: the % may be the effect or the level left
[2] = test system: Mus musculus; assay: Reduction in blood glucose in fasted db/db mouse at 50 to 100 mg/kg, po measured 2 to 4 hrs post dose; assay type: functional; set-up: scale not given: the % may be the effect or the level left
[3] = test system: Rattus norvegicus; assay: Suppression of labeled pyruvate conversion to [14C]glucose in Sprague-Dawley rat at 10 to 20 mg/kg, po; assay type: functional; details: dose mg/kg 10-20
[4] = Inhibition of carnitine palmitoyltransferase hemidiaphragms isolated from fasted pretreated rat assessed as reduction of [14]CO2 production from [1-14]-palmitate or [14C]-oleate
[5] = test system: Mus musculus; assay: Reduction in blood glucose in fed db/db mouse at 50 to 100 mg/kg, po measured 2 to 4 hrs post dose; assay type: functional; set-up: scale not given: the % may be the effect or the level left
[6] = test system: Canis familiaris; assay: Reduction in blood glucose in alloxan -treated dog at 7.5 mg/kg, po administered as single dose measured 6 hrs post dose (reference value: 9 mM); assay type: functional, Canis lupus familiaris
[7] = test system: Rattus norvegicus; assay: Reduction in KB level in alloxan-treated rat at 25 to 50 mg/kg, po measured 2 to 5 hrs post dose; assay type: functional; set-up: scale not given: the % may be the effect or the level left
[8] = test system: Canis familiaris; assay: Reduction in blood glucose in STZ-treated dog at 0.7 to 2 mg/kg/day, po for 7 days measured 6 hrs post dose (reference value: 9 mM); assay type: functional, Canis lupus familiaris
[9] = Inhibition of carnitine palmitoyltransferase in rat liver mitochondria assessed as formation of formation of palmitoyl[3H]carnitine from palmitoyl-CoA and [3H]carnitine
[10] = test system: Homo sapiens; assay: Reduction in basal hepatic glucose production in NIDD patient at 50 to 200 mg/day, po bid for 3 days before meals; assay type: functional; set-up: scale not given: the % may be the effect or the level left
[11] = test system: Homo sapiens; assay: Increase in glucose MCR in NIDD patient at 50 mg, po administered as single dose; assay type: functional
[12] = test system: Homo sapiens; assay: Reduction in glucose appearance rate in NIDD patient at 100 mg/day, po for 3 days administered as single dose; assay type: functional; set-up: scale not given: the % may be the effect or the level left
[13] = test system: Hepatocyte; assay: Inhibition of fatty acid synthesis in rat hepatocytes; assay type: functional, cell-based
[14] = test system: Mus musculus; assay: Reduction in FBG level in db/db mouse at 50 mg/kg, po; assay type: functional; set-up: scale not given: the % may be the effect or the level left
[15] = test system: Homo sapiens; assay: Reduction in plasma LD/HDL ratio in NIDD patient at 12.5 to 50 mg/day, po for 14 days; assay type: functional; set-up: scale not given: the % may be the effect or the level left
[16] = species: Homo sapiens; assay: Increase in left ventricular ejection fraction in CHF patient at 80 mg/day for 3 months; assay type: functional, Heart left ventricle
[17] = test system: Mus musculus; assay: Reduction in FBG level in db/db mouse at 10 mg/kg, po; assay type: functional; set-up: scale not given: the % may be the effect or the level left
[18] = test system: Homo sapiens; assay: Reduction in plasma TG level in NIDD patient at 50 to 200 mg/day, po bid for 3 days before meals; assay type: functional; set-up: scale not given: the % may be the effect or the level left
[19] = test system: Homo sapiens; assay: Reduction in fasting plasma glucose in NIDD patient at 50 to 200 mg/day, po bid for 3 days before meals; assay type: functional; set-up: scale not given: the % may be the effect or the level left
[20] = test system: Homo sapiens; assay: Reduction in whole body fat oxidation in human at 600 mg, po for 5 days; assay type: functional; set-up: scale not given: the % may be the effect or the level left
[21] = test system: Rattus norvegicus; assay: Reduction in blood glucose in STZ-treated fasted rat at 0.2 to 18 mg/kg, po measured 4 hrs post dose; assay type: functional; set-up: scale not given: the % may be the effect or the level left; details: dose mg/kg 0.2-18
[22] = test system: Homo sapiens; assay: Reduction in BHB level in NIDD patient at 50 to 200 mg/day, po bid for 3 days before meals; assay type: functional; set-up: scale not given: the % may be the effect or the level left
[23] = test system: Homo sapiens; assay: Reduction in postprandial glucose in NIDD patient at 125 mg/day, po for 4 days (reference value: 10.5 mM); assay type: functional
[24] = test system: MOLM-13; assay: Cytotoxicity against human MOLM13 cells assessed as reduction in cell viability; assay type: functional, cell-based
[25] = test system: Homo sapiens; assay: Increase in plasma FFAs level in NIDD patient at 50 to 200 mg/day, po bid for 3 days before meals; assay type: functional
[26] = test system: Homo sapiens; assay: Reduction in plasma TG level in NIDD patient at 12.5 to 50 mg/day, po for 14 days; assay type: functional; set-up: scale not given: the % may be the effect or the level left
[27] = test system: Rattus norvegicus; assay: Inhibition of CPT1 activity in blood KB level in STZ-treated fasted rat at 0.2 to 18 mg/kg, po; assay type: functional; details: dose mg/kg 0.2-18
[28] = test system: Rattus norvegicus; assay: Reduction in plasma TG in high fat diet fed STZ-treated rat at 12.5 mg/kg/day, po for up to 4 weeks measured 3 days to 1 week post dose; assay type: functional; set-up: scale not given: the % may be the effect or the level left
[29] = test system: Homo sapiens; assay: Reduction in beta-hydroxy butyrate level in NIDD patient at 12.5 to 50 mg/day, po for 14 days; assay type: functional; set-up: scale not given: the % may be the effect or the level left
[30] = test system: Rattus norvegicus; assay: Reduction in fasting plasma glucose level in STZ-treated rat at 12.5 to 25 mg/kg, po; assay type: functional; set-up: scale not given: the % may be the effect or the level left; details: dose mg/kg 12.5-25
[31] = test system: Mus musculus; assay: Reduction in daily water intake in db/db mouse at 10 to 20 mg/kg/day, po dosed life long through food-admix; assay type: functional; set-up: scale not given: the % may be the effect or the level left
[32] = species: Homo sapiens; assay: Increase in maximum cardiac output in CHF patient at 80 mg/day for 3 months measured during exercise; assay type: functional
[33] = test system: Homo sapiens; assay: Reduction in FBG level in NIDD patient at 12.5 to 50 mg/day, po for 14 days; assay type: functional; set-up: scale not given: the % may be the effect or the level left
[34] = test system: Mus musculus; assay: Reduction in urine volume in db/db mouse at 10 to 20 mg/kg/day, po dosed life long through food-admix; assay type: functional; set-up: scale not given: the % may be the effect or the level left
[35] = test system: Mus musculus; assay: Reduction in glucose excretion in db/db mouse at 10 to 20 mg/kg/day, po dosed life long through food-admix; assay type: functional; set-up: scale not given: the % may be the effect or the level left
[36] = Cytotoxicity against human OCI-AML3 cells assessed as reduction in cell viability; assay type: functional, cell-based; details: OCI-AML-3
[37] = test system: Rattus norvegicus; assay: Reduction in fasting serum FFAs level in high fat diet fed STZ-treated rat at 12.5 mg/kg/day, po for up to 4 weeks measured 3 days to 1 week post dose; assay type: functional; set-up: scale not given: the % may be the effect or the level left
[38] = test system: Rattus norvegicus; assay: Reduction in hepatic glucose production in STZ-treated rat at 12.5 to 25 mg/kg, po; assay type: functional; set-up: scale not given: the % may be the effect or the level left; details: dose mg/kg 12.5-25
[39] = test system: Homo sapiens; assay: Reduction in plasma cholesterol level in NIDD patient at 50 to 200 mg/day, po bid for 3 days before meals; assay type: functional; set-up: scale not given: the % may be the effect or the level left
[40] = species: Homo sapiens; assay: Increase in stroke volume in CHF patient at 80 mg/day for 3 months; assay type: functional
[41] = test system: Rattus norvegicus; assay: Reduction in blood KB level in STZ-treated fasted rat at 0.2 to 18 mg/kg, po; assay type: functional; set-up: scale not given: the % may be the effect or the level left; details: dose mg/kg 0.2-18
[42] = test system: Mus musculus; assay: Reduction in fasting glucose in db/db mouse at 10 to 20 mg/kg/day, po dosed life long through food-admix; assay type: functional; set-up: scale not given: the % may be the effect or the level left
[43] = test system: Homo sapiens; assay: Reduction in fat oxidation in NIDD patient at 100 mg/day, po for 3 days administered as single dose; assay type: functional; set-up: scale not given: the % may be the effect or the level left
[44] = test system: Homo sapiens; assay: Increase in metabolic clearance of glucose in NIDD patient at 50 mg, po administered as single dose; assay type: functional
[45] = test system: Homo sapiens; assay: Increase in carbohydrate oxidation in NIDD patient at 100 mg/day, po for 3 days administered as single dose; assay type: functional
[46] = Inhibition of Phospholipase A2

CCCCCCCCCCCCCCC1(C(=O)OC)CO1 (racemic) [METHYL PALMOXIRATE]
Activity [1]: 8%
Activity [2]: 78%
Activity [3]: 50%
EC50 [4]: 1000 nM
Activity [5]: 40%
Activity [6]: 6.5 mM
Activity [7]: 70%
Activity [8]: 6.5 mM
IC50 [9]: 46 nM

CCOC(=O)C1(CCCCCCOc2ccc(Cl)cc2)CO1 (racemic) [rac-ETOMOXIR]
Activity [10]: 18%
Activity [11]: 33%
Activity [12]: 8%
IC50 [13]: 2000 nM
Activity [14]: 55%
Activity [15]: 35%
Activity [16]: 25%
Activity [17]: 43%
Activity [18]: 54%
Activity [19]: 18%
Activity [20]: 13.7%
Activity [21]: 40%
Activity [22]: 44%
Activity [23]: 8.3 mM
IC50 [24]: 51000 nM
Activity [25]: 52%
Activity [26]: 30%
inhibition (INH) [27]: <=99%
Activity [28]: 67%
Activity [29]: 50%
Activity [30]: 32%
Activity [31]: 50%
Activity [32]: 38%
Activity [33]: <=45%
Activity [34]: 70%
Activity [35]: 70%
IC50 [36]: 51000 nM
Activity [37]: 56%
Activity [38]: 32%
Activity [39]: 24%
Activity [40]: 30%
Activity [41]: 87%
Activity [42]: 50%
Activity [43]: 18%
Activity [44]: 30%
Activity [45]: 58%

COC(=O)C1(C(F)CCCCc2ccccc2)CO1 (stereo unspecified)
IC50 [46]: 2600 nM
